One data set relates to rats. Put plainly: Water Maze (scopolamine induced reversal). It is filed as in vivo. Conditions: p.o. As to the method: The water maze apparatus consisted of a circular pool (1.8 m diameter, 0.6 m high) constructed in black Perspex (TSE systems, Germany) filled with water (24±2° C.) and positioned underneath a wide-angled video camera to track animal. The 10 cm^2 perspex platform, lying 1 cm below the water surface, was placed in the centre of one of the four imaginary quadrants, which remained constant for all rats. The black Perspex used in the construction of the maze and platform offered no intramaze cues to guide escape behavior. By contrast, the training room offered several strong extramaze visual cues to aid the formation of the spatial map necessary for escape learning. An automated tracking system, [Videomot 2 (5.51), TSE systems, Germany] was employed. This program analyzes video images acquired via a digital camera and an image acquisition boards that determined path length, swim speed and the number of entries and duration of swim time spent in each quadrant of the water maze.

The target in the next data set is Human 5-HT6 Receptor (Homo sapiens, UniProt P50406). Description: Binding Assay for Human 5-HT6 Receptor ([3H]LSD radioligand). Conditions: [3H]LSD 1.5 nM, human recombinant receptor in HEK293 cells.
Human 5-HT6 Receptor, sequence (P50406 whole entry): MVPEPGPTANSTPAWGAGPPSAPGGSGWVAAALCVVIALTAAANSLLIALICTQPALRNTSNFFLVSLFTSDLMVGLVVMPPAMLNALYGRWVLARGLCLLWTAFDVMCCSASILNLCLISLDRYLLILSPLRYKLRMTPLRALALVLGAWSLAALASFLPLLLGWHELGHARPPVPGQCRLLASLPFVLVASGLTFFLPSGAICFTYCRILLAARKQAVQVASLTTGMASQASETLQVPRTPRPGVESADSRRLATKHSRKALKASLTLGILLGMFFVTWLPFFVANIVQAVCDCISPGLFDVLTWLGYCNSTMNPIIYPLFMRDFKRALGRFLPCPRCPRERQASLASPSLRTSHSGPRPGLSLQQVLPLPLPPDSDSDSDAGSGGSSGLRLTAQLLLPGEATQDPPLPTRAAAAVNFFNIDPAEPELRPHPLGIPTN
A short description of data set [1]: Rodent Pharmacokinetic Study. It is filed as in vivo, Male wistar rats. Conditions: Wistar/Male rat; for AUCt / T1/2 / Tmax / Cmax: 50% PEG-400 in water for injection; for Cmax: plasma. As to the method:
Male wistar rats (230-280 grams) obtained from NIN (National Institute of Nutrition, Hyderabad, India) were used as an experimental animal.
Three to five animals were housed in each cage. Animals were kept fasted over night and maintained on a 12 hours light/dark cycle. […]
At each time point blood was collected by jugular vein. Plasma was stored frozen at −20° C. until analysis. The concentrations of the NCE compound in plasma were determined using LC-MS/MS method.
Schedule time points: Pre dose. 0.25, 0.5, 1, 1.5, 2, 3, 4, 6, 8, 10, 12 and 24 hours after dosing (n=3). The NCE compounds were quantified in plasma by validated LC-MS/MS method using solid phase extraction technique. NCE compounds were quantified in the calibration range of 2-2000 ng/mL in plasma. Study samples were analyzed using calibration samples in the batch and quality control samples spread across the batch.
Pharmacokinetic parameters Cmax, Tmax, AUCt, AUCinf, half life, volume of distribution, clearance, mean residence time and thereby oral bioavailability were calculated by non-compartmental model using software WinNonlin version 5.1.

Another data set has as its system Male Wister rats. Description: Object Recognition Task Model. It counts as in vivo. Conditions: rat, 3 mg/kg p.o. The procedure: The cognition-enhancing properties of compounds of this invention were estimated using a model of animal cognition: the object recognition task model.
Male Wister rats (230-280 grams) obtained from N. I. N. (National Institute of Nutrition, Hyderabad, India) was used as experimental animals. Four animals were housed in each cage. Animals were kept on 20% food deprivation before one day and given water ad libitum throughout the experiment and maintained on a 12 hours light/dark cycle. Also the rats were habituated to individual arenas for 1 hour in the absence of any objects.
One group of 12 rats received vehicle (1 mL/Kg) orally and another set of animals received compound of the formula (I) either orally or i.p., before one hour of the familiar (T1) and choice trial (T2).
The experiment was carried out in a 50×50×50 cm open field made up of acrylic. In the familiarization phase, (T1), the rats were placed individually in the open field for 3 minutes, in which two identical objects (plastic bottles, 12.5 cm height×5.5 cm diameter) covered in yellow masking tape alone (a1 and a2) were positioned in two adjacent corners, 10 cm. from the walls. After 24 hours of the (T1) trial for long-term memory test, the same rats were placed in the same arena as they were placed in T1 trial. Choice phase (T2) rats were allowed to explore the open field for 3 minutes in presence of one familiar object (a3) and one novel object (b) (Amber color glass bottle, 12 cm high and 5 cm in diameter). Familiar objects presented similar textures, colors and sizes. During the T1 and T2 trial, explorations of each object (defined as sniffing, licking, chewing or having moving vibrissae whilst directing the nose towards the object at a distance of less than 1 cm) were recorded separately by stopwatch. Sitting on an object was not regarded as exploratory activity, however, it was rarely observed.
T1 is the total time spent exploring the familiar objects (a1+a2).
T2 is the total time spent exploring the familiar object and novel object (a3+b).
The object recognition test was performed as described by Ennaceur, A., Delacour, J., A new one-trial test for neurobiological studies of memory in rats—Behavioural data, Behay. Brain Res., 1988, 31, 47-59.

Data set [2] can be described thus: Rodent Brain Penetration Study. Conditions: Wistar/Male rat, Intravenous infusion, 1 mg/kg, brain/plasma. It is filed as in vivo, Male Wister rats. The procedure:
Male Wister rats (230-280 grams) obtained from NIN (National Institute of Nutrition, Hyderabad, India) was used as an experimental animal. Three animals were housed in each cage. Animals were given water and food ad libitum throughout the experiment, and maintained on a 12 hours light/dark cycle.
Brain penetration was determined at steady state in rat. One day prior to dosing day, male wistar rats (225-250 grams) were anesthetized with halothane for surgical placement of jugular and femoral vein catheters. After surgery, the rats were housed in individual rat infusion cage connected with infusion components (Instech Solomon; Plymouth Meeting, Pa. USA) and allowed free access to food and water
NCE compound was dissolved in water and administered at a constant infusion rate (5 mL/kg/hr) over 6-10 hours at a target dose rate of 1.0 mg free base/kg/h. Blood samples were removed during the latter part of the infusion to confirm steady-state blood concentrations, brain and blood was collected and estimated. Animals will be sacrificed to collect the plasma and brain tissue and was homogenized. Plasma and Brain was stored frozen at −20° C. until analysis. The concentrations of the NCE compound in plasma and Brain were determined using LC-MS/MS method.
The NCE compounds were quantified in plasma and brain homogenate by validated LC-MS/MS method using solid phase extraction technique. NCE compounds were quantified in the calibration range of 1-500 ng/mL in plasma and brain homogenate. Study samples were analyzed using calibration samples in the batch and quality control samples spread across the batch. Extents of brain-blood ratio were calculated (Cb/Cp).

These results are taken from US8404720B2, “Aryl sulfonamide amine compounds and their use as 5-HT6 ligands” (Suven Life Sciences Limited, priority 2008, dated 2013).

Description for Human 5-HT6 Receptor: Receptor source: Human recombinant expressed in HEK293 cells
Radioligand: [^3H]LSD (60-80 Ci/mmol)
Final ligand concentration— [1.5 nM]
Non-specific determinant: Methiothepin mesylate— [0.1 μM]
Reference compound: Methiothepin mesylate
Positive control: Methiothepin mesylate
Reactions were carried out in 50 μM TRIS-HCl (pH 7.4) containing 10 μM MgCl2, 0.5 mM EDTA for 60 minutes at 37° C. The reaction was terminated by rapid vacuum filtration onto glass fiber filters. Radioactivity trapped onto the filters was determined and compared to control values in order to ascertain any interactions of test compound(s) with the cloned serotonin 5-HT6 binding site.

One may read the melting point as the temperature, or range, at which the solid turns liquid. In turn, `COc1ccc(NS(=O)(=O)c2ccccc2Br)cc1N(C)C1CCN(C)CC1` came in with a melting point of 119.2 to 121.3 °C.
The % Inhibition is the drop in the measured response relative to a control, in per cent. For orientation: Tmax means the time from dosing to the highest level. By Cmax is commonly meant the highest concentration seen after dosing. For `Cc1ccc(NS(=O)(=O)c2ccccc2Br)cc1NC1CCN(C)CC1` [Example 15, 2-Bromo-N-[4-Methyl-3-(1-methylpiperidin-4-ylamino)phenyl] benzenesulfonamide], the “Scopolamine Induced Reversal” value in the data set with rats is listed as “≦3 mg/kg, p.o”. On Human 5-HT6 Receptor (100 nM test compound), the “% Inhibition at 100 nM” value is 99.44%. The “% Inhibition at 1000 nM” value on Human 5-HT6 Receptor (1000 nM test compound) was determined as 104.28%. Further, in data set [1] (Intravenous, 5 mg/kg), the AUCt was 1231 ± 52 ng·h/mL, the T1/2 was 3.08 ± 2.11 h, the Tmax is recorded as 0.08 ± 0.0 h and the Cmax came out at 727 ± 18 ng/mL. For the same compound, in data set [1] (Oral, 10 mg/kg), the AUCt is 2462 ± 901 ng·h/mL, the T1/2 was found to be 3.15 ± 2.99 h, the Tmax is 2.33 ± 1.15 h and the Cmax came out at 503 ± 263 ng/mL. In addition, the Bioavailability in data set [1] (oral 10 mg/kg versus intravenous) came out at 99%. Further, the “Exploration time mean ± S.E.M (sec), first value column” value with Male Wister rats (choice trial T2, first of two columns (sub-head not printed, presumably familiar object)) worked out at 6.89 ± 1.54 s. Also, in the data set with Male Wister rats (choice trial T2, second of two columns (sub-head not printed, presumably novel object)), the “Exploration time mean ± S.E.M (sec), second value column” value is 13.26 ± 2.80 s. For the same compound, the Inference result in the data set on Male Wister rats (object recognition task) is “Active”. For the same compound, the “Steady State Brain Penetration (Cb/Cp)” value in data set [2] worked out at 0.35 ± 0.08.
